Reference: US20220235043A1, “SUBSTITUTED SULFONAMIDE PYRROLOPYRIDINES AS JAK INHIBITORS” (ACLARIS THERAPEUTICS, INC., priority 2019, published 2022)

Experiments:
JAK1 = biological target: T1, JAK1 (Homo sapiens, UniProt P23458); experiment: JAK1 enzyme activity assay (Thermo Fisher Selectscreen, Z-lyte); type: biochemical; conditions: read-out: JAK1 Inhibition IC50
T1 construct: purchased Thermo Fisher Scientific (SelectScreen service)
Method: (§1) The inhibitory potency of candidate compounds of JAK1, JAK2, and Tyk-2 was done at Thermo Fisher Scientific in their Selectscreen using a Z-lyte assay. Following are the assay details for each enzyme.
JAK1: The 2×JAK-enzyme/Tyr 06 mixture is prepared in 50 mM HEPES pH 6.5, 0.01% BRIJ-35, 10 mM MgCl2, 1 mM EGTA, 0.02% NaN3. The final 10 μL of the Kinase Reaction consists of 21.2-91.5 ng JAK1 and 2 μM Tyr 06 in 50 mM HEPES pH 7.0, 0.01% BRIJ-35, 10 mM MgCl2, 1 mM EGTA, 0.01% NaN3. After the one hour Kinase Reaction incubation, 5 μL of a 1:128 dilution of Development Reagent is added.
(§2) Data reduction for JAK1, JAK2 and TYK2 is done the same, independent of the enzyme run. In summary, background signal is defined in the absence of enzyme and uninhibited signal is defined in the presence of vehicle (2% DMSO) alone. Compounds were evaluated in an 11 point dose-response ranging from […] to 0.34 nM. IC50 values of compounds are determined using a 4 parameter logistical fit of emission ratio as a function of the concentration of compound.

JAK2 = biological target: T2, JAK2 (Homo sapiens, UniProt O60674); experiment: JAK2 enzyme activity assay (Thermo Fisher Selectscreen, Z-lyte); type: biochemical; conditions: read-out: JAK2 Inhibition IC50
T2 construct: purchased Thermo Fisher Scientific (SelectScreen service)
T2 sequence (O60674 whole entry): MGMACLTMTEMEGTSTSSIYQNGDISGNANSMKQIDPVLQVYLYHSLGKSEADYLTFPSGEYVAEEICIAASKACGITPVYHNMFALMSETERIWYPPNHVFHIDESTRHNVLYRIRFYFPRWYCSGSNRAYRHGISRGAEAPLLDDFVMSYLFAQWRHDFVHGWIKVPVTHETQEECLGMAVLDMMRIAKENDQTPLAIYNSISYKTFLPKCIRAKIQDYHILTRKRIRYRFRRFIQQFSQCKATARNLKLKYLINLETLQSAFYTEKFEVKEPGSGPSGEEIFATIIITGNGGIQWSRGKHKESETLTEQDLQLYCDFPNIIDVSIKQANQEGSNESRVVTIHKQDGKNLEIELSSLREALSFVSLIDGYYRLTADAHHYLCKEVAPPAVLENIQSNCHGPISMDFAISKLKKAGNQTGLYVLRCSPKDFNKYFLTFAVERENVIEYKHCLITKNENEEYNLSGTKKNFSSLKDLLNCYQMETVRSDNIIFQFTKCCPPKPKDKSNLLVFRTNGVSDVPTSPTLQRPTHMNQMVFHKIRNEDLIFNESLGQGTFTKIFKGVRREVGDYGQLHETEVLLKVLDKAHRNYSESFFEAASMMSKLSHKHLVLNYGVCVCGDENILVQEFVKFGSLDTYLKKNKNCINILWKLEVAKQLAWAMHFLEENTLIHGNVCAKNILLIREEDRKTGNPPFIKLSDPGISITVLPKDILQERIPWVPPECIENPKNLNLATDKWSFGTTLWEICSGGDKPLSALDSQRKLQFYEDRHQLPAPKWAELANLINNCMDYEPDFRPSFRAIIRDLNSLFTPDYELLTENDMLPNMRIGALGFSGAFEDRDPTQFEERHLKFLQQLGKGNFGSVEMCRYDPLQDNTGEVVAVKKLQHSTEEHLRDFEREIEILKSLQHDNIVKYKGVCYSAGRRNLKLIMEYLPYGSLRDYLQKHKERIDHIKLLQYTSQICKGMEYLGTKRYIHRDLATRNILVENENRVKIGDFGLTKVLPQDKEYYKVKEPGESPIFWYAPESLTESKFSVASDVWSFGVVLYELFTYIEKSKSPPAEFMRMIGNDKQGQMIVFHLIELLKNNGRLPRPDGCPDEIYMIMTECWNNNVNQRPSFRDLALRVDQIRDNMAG
Method: as §1
JAK2: The 2×JAK2/Tyr 06 mixture is prepared in 50 mM HEPES pH 7.5, 0.01% BRIJ-35, 10 mM MgCl2, 1 mM EGTA. The final 10 μL Kinase Reaction consists of 0.12-0.5 ng JAK2 and 2 μM Tyr 06 in 50 mM HEPES pH 7.5, 0.01% BRIJ-35, 10 mM MgCl2, 1 mM EGTA. After the one hour Kinase Reaction incubation, 5 μL of a 1:128 dilution of Development Reagent A is added.
as §2

JAK3 (a.a. 781-1124) = biological target: T3, JAK3 (a.a. 781-1124) (Homo sapiens, UniProt P52333); experiment: JAK3 enzyme activity assay (SRCtide phosphorylation, Caliper); type: biochemical; conditions: 1 uM ATP; read-out: JAK3 Inhibition IC50
T3 construct: JAK3 (a.a. 781-1124, ThermoFisher); purchased ThermoFisher
T3 sequence (P52333 781-1124): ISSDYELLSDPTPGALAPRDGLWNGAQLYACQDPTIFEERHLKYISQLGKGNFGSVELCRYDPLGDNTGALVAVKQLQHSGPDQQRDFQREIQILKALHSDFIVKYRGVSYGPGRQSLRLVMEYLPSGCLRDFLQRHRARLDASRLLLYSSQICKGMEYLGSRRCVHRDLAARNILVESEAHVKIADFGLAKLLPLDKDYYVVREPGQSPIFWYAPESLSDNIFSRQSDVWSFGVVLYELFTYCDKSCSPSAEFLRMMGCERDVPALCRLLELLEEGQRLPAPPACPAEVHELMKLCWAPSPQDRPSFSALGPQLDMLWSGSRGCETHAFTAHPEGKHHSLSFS
Method: The activity of JAK3 (a.a. 781-1124, ThermoFisher) was quantified by measuring the phosphorylation of SRCtide (FAM-GEEPLYWSFPAKKK-NH2). Kinase reactions were run in a 384-well Greiner plate with 2% final DMSO concentration under the buffer conditions of 20 mM HEPES, pH 7.5, 10 mM MgCl2, 0.01% BSA, and 0.0005% Tween-20. The kinase reaction components were 2.5 nM JAK3, 1 μM SRCtide peptide and 1 uM ATP. Examples were tested in dose-response starting at […] (11 concentrations, 3-fold serial dilution, duplicate reactions). The reactions were incubated at room temperature for 40 minutes, then stopped by adding a 1:1 volume of 30 mM EDTA in 20 mM HEPES, pH 7.5 (15 mM EDTA final). After the reaction was stopped, the phosphorylated and unphosphorylated peptides were separated and quantified using a Caliper LC3000/EZ-Reader system and HTS Well Analyzer Software (Caliper, A PerkinElmer Company, Hopkinton, Mass.). GraFit (Erithacus Software Ltd., Horley, U.K.) was used to calculate inhibitor potency by fitting dose-response data to the 4-parameter logistical IC50 equation.

Tyk-2 = biological target: T4, Tyk-2 (Homo sapiens, UniProt P29597); experiment: Tyk-2 enzyme activity assay (Thermo Fisher Selectscreen, Z-lyte); type: biochemical; conditions: read-out: Tyk-2 Inhibition IC50
T4 construct: purchased Thermo Fisher Scientific (SelectScreen service)
T4 sequence (P29597 whole entry): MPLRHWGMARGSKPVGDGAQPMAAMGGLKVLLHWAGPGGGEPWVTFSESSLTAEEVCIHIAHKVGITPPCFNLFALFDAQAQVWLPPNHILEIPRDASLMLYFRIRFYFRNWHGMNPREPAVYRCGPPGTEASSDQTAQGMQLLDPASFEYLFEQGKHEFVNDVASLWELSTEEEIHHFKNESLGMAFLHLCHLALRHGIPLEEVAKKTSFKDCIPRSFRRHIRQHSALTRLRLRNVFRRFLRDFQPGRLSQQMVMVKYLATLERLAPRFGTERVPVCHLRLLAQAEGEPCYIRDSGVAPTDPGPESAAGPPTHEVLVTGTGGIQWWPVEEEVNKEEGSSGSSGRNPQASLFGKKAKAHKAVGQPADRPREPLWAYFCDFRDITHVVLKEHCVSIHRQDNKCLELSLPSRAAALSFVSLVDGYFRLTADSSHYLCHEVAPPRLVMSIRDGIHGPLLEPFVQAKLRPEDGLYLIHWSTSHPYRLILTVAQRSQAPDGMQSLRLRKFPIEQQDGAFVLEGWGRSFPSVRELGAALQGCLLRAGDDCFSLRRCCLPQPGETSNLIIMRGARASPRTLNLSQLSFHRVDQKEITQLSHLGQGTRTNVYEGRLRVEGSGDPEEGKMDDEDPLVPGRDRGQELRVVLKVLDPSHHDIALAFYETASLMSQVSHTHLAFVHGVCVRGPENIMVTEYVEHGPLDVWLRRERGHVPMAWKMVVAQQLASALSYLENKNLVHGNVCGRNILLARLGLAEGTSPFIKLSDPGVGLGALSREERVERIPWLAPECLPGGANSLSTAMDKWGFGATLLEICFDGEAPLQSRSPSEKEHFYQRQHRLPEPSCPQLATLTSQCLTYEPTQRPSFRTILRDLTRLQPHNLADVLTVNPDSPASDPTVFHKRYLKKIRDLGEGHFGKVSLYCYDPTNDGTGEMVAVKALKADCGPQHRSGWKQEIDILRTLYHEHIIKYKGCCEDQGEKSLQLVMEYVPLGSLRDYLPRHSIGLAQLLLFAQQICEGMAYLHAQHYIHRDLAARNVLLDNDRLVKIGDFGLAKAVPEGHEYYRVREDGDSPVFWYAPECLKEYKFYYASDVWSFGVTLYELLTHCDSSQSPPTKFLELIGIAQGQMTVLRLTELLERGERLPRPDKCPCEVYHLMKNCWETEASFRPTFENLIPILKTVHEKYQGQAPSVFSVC
Method: as §1
TYK2: The 2×TYK2/Tyr 03 mixture is prepared in 50 mM HEPES pH 6.5, 0.01% BRIJ-35, 10 mM MgCl2, 1 mM EGTA, 0.02% NaN3. The final 10 μL Kinase Reaction consists of 3.75-15 ng TYK2 and 2 μM Tyr 03 in 50 mM HEPES pH 7.0, 0.01% BRIJ-35, 10 mM MgCl2, 1 mM EGTA, 0.01% NaN3. After the one hour KinaseReaction incubation, 5 μL of a 1:4096 dilution of Development Reagent A is added.
as §2

[1] = test system: IL-2 stimulated STAT5 phosphorylation on Tyr694 (JAK1/3); experiment: JAK1/3 cellular target modulation: IL-2 stimulated phospho-STAT5 in human PBMC; type: cell-based; conditions: IL-2 25 ng/ml, read-out: IL2-STAT5 IC50
Source text: (§3) Target modulation was based upon the ability of a compound to inhibit JAK isoform specific phosphorylation of selected substrates. IL-2 stimulated STAT5 phosphorylation on Tyr694 was used to assess JAK1/3 compound selectivity. GM-CSF stimulated STAT5 phosphorylation on Tyr694 was used to assess JAK2 compound selectivity. IFNγ stimulated STAT1 phosphorylation on Tyr701 was used to assess JAK1/2 compound selectivity. IL-12 stimulated STAT4 phosphorylation on Tyr693 was used to assess JAK2/TYK2 compound selectivity. For all four assays, human PBMC from frozen stocks were thawed, pelleted, resuspended in complete media (90% RPMI, 10% heat inactivated FBS, 10 mM HEPES, 47 μM 2-ME, pen/strep) and placed in wells of a 96 well V-bottom plate at 200,000 per well in 120 μl complete media. Compounds were added as 15 μl per well of 10× working stock solutions in complete media with 1% DMSO (or medium with 1% DMSO for controls) and placed on a plate shaker in a 37° C. incubator with 5% CO2 for 1 hour with gentle shaking (setting of 3). Stimulation used the addition of soluble cytokines. For the JAK1/3 phospho-STAT5 assay, 15 μl of 10× working stock recombinant human IL-2 was added to a final concentration of 25 ng/ml. For the JAK2 phospho-STAT5 assay, 15 μl of 10× working stock recombinant human GM-CSF was added to a final concentration of 5 ng/ml. For the JAK1/2 phospho-STAT1 assay, 15 μl of 10× working stock of recombinant human IFNγ was added to a final concentration of 10 ng/ml. For the JAK2/TYK2 phospho-STAT4 assay, 15 μl of 10× working stock of recombinant human IL-12 was added to a final concentration of 1.7 ng/ml. Plates were then placed back on the plate shaker in the incubator for an additional 5, 5, 10, and 25 minutes respectively upon which the plates were removed from the incubator, sealed with a plate sealer and the cells pelleted at 400×g for 5 minutes. After pelleting, the media was removed by aspiration and the cells were lysed in assay specific cell lysis buffer. The levels of phospho-STAT5 were determined using a Phospho (Tyr694)STAT5a,b Whole Cell Lysate kit from Meso Scale Discovery. Levels of phospho-STAT1 were determined using a CST-PathScan Phospho-STAT1 (Tyr701) Sandwich ELISA kit. Levels of phospho-STAT4 were determined using a Phospho-STAT4 (Tyr693) Whole Cell Lysate kit from Meso Scale Discovery.

[2] = test system: IFNγ stimulated STAT1 phosphorylation on Tyr701 (JAK1/2); experiment: JAK1/2 cellular target modulation: IFNγ stimulated phospho-STAT1 in human PBMC; type: cell-based; conditions: IFNγ 10 ng/ml, read-out: Infγ-STAT1 IC50
Source text: as §3

[3] = test system: IL-12 stimulated STAT4 phosphorylation on Tyr693 (JAK2/TYK2); experiment: JAK2/TYK2 cellular target modulation: IL-12 stimulated phospho-STAT4 in human PBMC; type: cell-based; conditions: IL-12 1.7 ng/ml, read-out: IL12-STAT4 IC50
Source text: as §3

T1 sequence (P23458 whole entry): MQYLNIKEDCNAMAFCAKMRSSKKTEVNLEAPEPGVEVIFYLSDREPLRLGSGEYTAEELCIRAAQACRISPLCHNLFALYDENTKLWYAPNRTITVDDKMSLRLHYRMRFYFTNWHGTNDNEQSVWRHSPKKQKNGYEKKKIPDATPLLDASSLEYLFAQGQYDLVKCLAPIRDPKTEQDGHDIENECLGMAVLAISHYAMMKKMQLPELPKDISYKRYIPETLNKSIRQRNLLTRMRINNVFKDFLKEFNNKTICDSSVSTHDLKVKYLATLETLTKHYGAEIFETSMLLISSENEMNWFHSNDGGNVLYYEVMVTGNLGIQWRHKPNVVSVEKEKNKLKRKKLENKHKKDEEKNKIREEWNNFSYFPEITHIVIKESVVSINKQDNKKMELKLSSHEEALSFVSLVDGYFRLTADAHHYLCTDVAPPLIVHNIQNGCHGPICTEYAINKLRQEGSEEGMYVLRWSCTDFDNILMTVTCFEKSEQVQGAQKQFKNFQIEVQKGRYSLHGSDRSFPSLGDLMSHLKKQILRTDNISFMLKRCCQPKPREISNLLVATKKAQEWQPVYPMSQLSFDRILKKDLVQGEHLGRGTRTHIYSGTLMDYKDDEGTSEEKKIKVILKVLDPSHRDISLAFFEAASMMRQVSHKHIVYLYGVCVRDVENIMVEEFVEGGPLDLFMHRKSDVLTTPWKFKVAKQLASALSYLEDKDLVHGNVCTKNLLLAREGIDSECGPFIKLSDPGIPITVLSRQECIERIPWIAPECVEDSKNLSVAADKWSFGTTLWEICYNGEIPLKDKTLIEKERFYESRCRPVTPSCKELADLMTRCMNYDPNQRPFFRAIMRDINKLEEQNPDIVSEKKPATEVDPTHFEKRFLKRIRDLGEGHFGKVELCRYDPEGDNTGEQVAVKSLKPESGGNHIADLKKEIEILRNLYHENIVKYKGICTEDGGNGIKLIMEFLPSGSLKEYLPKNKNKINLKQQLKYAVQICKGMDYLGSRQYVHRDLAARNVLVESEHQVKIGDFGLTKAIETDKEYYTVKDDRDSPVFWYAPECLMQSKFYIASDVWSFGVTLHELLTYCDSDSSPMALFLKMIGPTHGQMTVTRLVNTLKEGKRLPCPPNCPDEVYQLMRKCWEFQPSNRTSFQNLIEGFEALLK

Structure (SMILES)	IC50 (JAK1) [nM]	IC50 (JAK2) [nM]	IC50 (JAK3 (a.a. 781-1124)) [nM]	IC50 (Tyk-2) [nM]	IC50 [1] [nM]	IC50 [2] [nM]	IC50 [3] [nM]
CCCS(=O)(=O)N[C@H]1C[C@@H](Nc2c(-c3cc(C(=O)NC)ccn3)cnc3[nH]ccc23)C1 [Example 68, N-methyl-2-(4-(((1s,3s)-3-(propylsulfonamido)cyclobutyl)amino)-1H-pyrrolo[2,3-b]pyridin-5-yl)isonicotinamide]	10 to 100	100 to 1000	10 to 100	100 to 1000	> 1000	–	–
CCCS(=O)(=O)N[C@H]1C[C@@H](Nc2c(-c3nnco3)cnc3[nH]ccc23)C1 [Example 80, N-((1s,3s)-3-((5-(1,3,4-oxadiazol-2-yl)-1H-pyrrolo[2,3-b]pyridin-4-yl)amino)cyclobutyl)propane-1-sulfonamide]	10 to 100	10 to 100	10 to 100	100 to 1000	100 to 1000	–	> 1000
Cc1nnc(-c2cnc3[nH]ccc3c2N[C@H]2C[C@@H](NS(=O)(=O)c3cc(C#N)ccn3)C2)o1 [Example 83, 4-cyano-N-((1s,3s)-3-((5-(5-methyl-1,3,4-oxadiazol-2-yl)-1H-pyrrolo[2,3-b]pyridin-4-yl)amino)cyclobutyl)pyridine-2-sulfonamide]	100 to 1000	100 to 1000	> 1000	> 1000	–	–	–
CCOC(=O)c1cnc2[nH]ccc2c1N[C@H]1C[C@H](NS(=O)(=O)c2cc(C#N)ccn2)C1 [Example 4, ethyl 4-(((1r,3r)-3-((4-cyanopyridine)-2-sulfonamido)cyclobutyl)amino)-1H-pyrrolo[2,3-b]pyridine-5-carboxylate]	10 to 100	10 to 100	10 to 100	100 to 1000	> 1000	–	–
CCOC(=O)c1cnc2[nH]ccc2c1NC1CC(NS(=O)(=O)c2cc(C#N)ccn2)C1 (mixture of isomers) [Example 1, ethyl 4-((3-((4-cyanopyridine)-2-sulfonamido)cyclobutyl)amino)-1H-pyrrolo[2,3-b]pyridine-5-carboxylate]	10 to 100	100 to 1000	10 to 100	100 to 1000	100 to 1000	> 1000	–

The next lines start with the values.

IC50 (JAK1) [nM]	IC50 (JAK2) [nM]	IC50 (JAK3 (a.a. 781-1124)) [nM]	IC50 (Tyk-2) [nM]	IC50 [1] [nM]	IC50 [2] [nM]	IC50 [3] [nM]	Structure (SMILES)
≤ 10	≤ 10	10 to 100	10 to 100	100 to 1000	100 to 1000	> 1000	N#Cc1ccnc(S(=O)(=O)N[C@H]2C[C@H](Nc3c(-c4ccncn4)cnc4[nH]ccc34)C2)c1 [Example 63, 4-cyano-N-((1r,3r)-3-((5-(pyrimidin-4-yl)-1H-pyrrolo[2,3-b]pyridin-4-yl)amino)cyclobutyl)pyridine-2-sulfonamide]
≤ 10	≤ 10	10 to 100	10 to 100	100 to 1000	100 to 1000	> 1000	Cc1nnc(-c2cnc3[nH]ccc3c2N[C@H]2C[C@@H](NS(=O)(=O)CCCC#N)C2)s1 [Example 77, 3-cyano-N-((1s,3s)-3-((5-(5-methyl-1,3,4-thiadiazol-2-yl)-1H-pyrrolo[2,3-b]pyridin-4-yl)amino)cyclobutyl)propane-1-sulfonamide]
≤ 10	10 to 100	100 to 1000	10 to 100	100 to 1000	> 1000	–	CNC(=O)c1ccnc(-c2cnc3[nH]ccc3c2N[C@H]2C[C@@H](NS(=O)(=O)c3cc(C#N)ccn3)C2)c1 [Example 67, 2-(4-(((1s,3s)-3-((4-cyanopyridine)-2-sulfonamido)cyclobutyl)amino)-1H-pyrrolo[2,3-b]pyridin-5-yl)-N-methylisonicotinamide]
≤ 10	≤ 10	10 to 100	10 to 100	≤ 100	–	> 1000	CCCS(=O)(=O)N[C@H]1C[C@@H](Nc2c(-c3ncco3)cnc3[nH]ccc23)C1 [Example 65, N-((1s,3s)-3-((5-(1,3-oxazol-2-yl)-1H-pyrrolo[2,3-b]pyridin-4-yl)amino)cyclobutyl)propane-1-sulfonamide]
≤ 10	10 to 100	10 to 100	10 to 100	≤ 100	100 to 1000	–	CCOC(=O)c1cnc2[nH]ccc2c1N[C@H]1C[C@@H](NS(=O)(=O)c2cccc(C#N)c2)C1 [Example 2, cis-Ethyl 4-((3-((3-cyanophenyl)sulfonamido)cyclobutyl)amino)-1H-pyrrolo[2,3-b]pyridine-5-carboxylate]
≤ 10	10 to 100	10 to 100	10 to 100	100 to 1000	100 to 1000	–	CCOC(=O)c1cnc2[nH]ccc2c1N[C@H]1C[C@H](NS(=O)(=O)c2cccc(C#N)c2)C1 [Example 3, trans-Ethyl 4-((3-((3-cyanophenyl)sulfonamido)cyclobutyl)amino)-1H-pyrrolo[2,3-b]pyridine-5-carboxylate]
